Patent US11344537B2 (BIOVERSYS AG, priority 2019, dated 2022)
In brackets after ≈: the same amount, converted by molar mass. Where two headings read alike, the source gives them in different places.

Experiments:
[1] = Preliminary assessment of solubility in solvents (24 h); assay type: physicochemical; details: thermodynamic from solid, 24 h stirring at room temperature, read-out: Solubility (mg/ml) at 24 h
Procedure: After 24 h stirring at room temperature, samples were centrifuged, and the supernatant analyzed by HPLC.

[2] = Dissolution of rifabutin in DMI or DMI/water with acid and dilution with aqueous solutions; assay type: physicochemical; details: in DMI without water or acid; longer than plausibly acceptable
[3] = in Ethanol (literature data); cited from earlier work
[4] = human, in vivo, cited from earlier work
[5] = HIV-infected patients, 300 mg/day (Hafner et al, 1998); cited from earlier work

CO[C@H]1/C=C/O[C@@]2(C)Oc3c(C)c(O)c4c(c3C2=O)C2=NC3(CCN(CC(C)C)CC3)NC2=C(NC(=O)/C(C)=C\C=C\[C@H](C)[C@H](O)[C@@H](C)[C@@H](O)[C@@H](C)[C@H](OC(C)=O)[C@@H]1C)C4=O [rifabutin]
solubility at 24 h ([1]; aqueous buffer, in Acetate buffer pH 4 (USP)): 11.3 mg/mL (≈ 13300 µM)
solubility at 24 h ([1]; aqueous buffer, in Borate buffer pH 10 (USP)): 1.9 mg/mL (≈ 2240 µM)
solubility at 24 h ([1]; aqueous buffer, in Phosphate buffer pH 6 (USP)): 0.3 mg/mL (≈ 354 µM)
solubility at 24 h ([1]; aqueous buffer, in Phosphate buffer pH 8 (USP)): 0.2 mg/mL (≈ 236 µM)
solubility at 24 h ([1]; aqueous with cosolvent or surfactant or cyclodextrin, in Povidone K12 (5% w/w in water)): 0.5 mg/mL (≈ 590 µM)
solubility at 24 h ([1]; aqueous with cosolvent or surfactant or cyclodextrin, in Tween 80 (1% w/w in water)): 1.3 mg/mL (≈ 1530 µM)
solubility at 24 h ([1]; organic solvent or mixture, in Dimethyl isosorbide (DMI)): ≥ 245 mg/mL
solubility at 24 h ([1]; organic solvent or mixture, in Dimethylacetamide (DMA)): ≥ 204 mg/mL
solubility at 24 h ([1]; organic solvent or mixture, in Glycerol): 0.4 mg/mL (≈ 472 µM)
solubility at 24 h ([1]; organic solvent or mixture, in N-Methyl-2-pyrrolidone (NMP)): ≥ 190 mg/mL
solubility at 24 h ([1]; organic solvent or mixture, in Polyethylene glycol 400 (PEG400)): ≥ 110 mg/mL
solubility at 24 h ([1]; organic solvent or mixture, in Propylene glycol): ≥ 92 mg/mL
solubility at 24 h ([1]; organic solvent or mixture, in Transcutol HP): ≥ 206 mg/mL
solubility at 24 h ([1]; saline or isotonic, in Saline 0.9%): 0.3 mg/mL (≈ 354 µM)
Dissolution of rifabutin in DMI, concentration [2]: > 250 mg/mL
Solubility (mg/ml) at 24 h [3]: 30 mg/mL (≈ 35400 µM)
time at which Cmax is attained after oral administration ([4]; 300 mg): approximately 3 hours
mean Cmax ([4]; po, 300 mg): 375 ng/mL
Cmax ([4]; po, 600 mg): 400 to 700 ng/mL
oral dose absorbed [4]: at least 53%
AUC at steady state [5]: 8600 ± 8200 ng·h/mL
Cmax at steady state [5]: 590 ± 330 ng/mL
